In patent US20120015396A1, “COMPOSITIONS AND METHODS FOR MODULATING THE ACID-SENSING ION CHANNEL (ASIC)” (Department of Veteran's Affair, United States Technology …, priority 2002, published 2012):

Assays:
[1] = test system: Schaffer collateral-CA1 synapses in hippocampal slices; experiment: Baseline field EPSP recording in hippocampal slices; assay type: cell-based; details: KA 5 mM; slices from +/+ and −/− mice
Protocol: (§1) Transverse hippocampal slices (350-400 μm) were prepared from wild type (+/+) and ASIC knock out (−/−) littermates at 2-4 months of age. For the LTP studies, the applicant was blinded to genotype. The slices were sectioned in ice-cold artificial cerebrospinal fluid (ACSF) containing (in mM) 119 NaCl, 2.5 KCl, 2.5 CaCl2, 1.0 NaH2PO4, 1.3 MgSO4, 26.2 NaHCO3, 11 glucose, pH 7.4, bubbled with 95% O2/5% CO2, and then were incubated in identical solution at 31° C. for 2-5 hours before recording.
Standard extracellular field potential recording techniques were used. Experiments were performed in a submerged chamber, heated to 31±0.5° C. Field postsynaptic excitatory potentials (EPSPs) were evoked in CA1 stratum radiatum by stimulation of Schaffer collaterals with a bipolar stainless steel electrode that was put at the border of CA3-CA1 subfields and recorded with 3M NaCl-filled glass pipettes (<5 MSΩ) using a biological amplifier (WPI, Iso-DAME, FL., USA). A 100 μs test stimulation was delivered every 30 s by a stimulus isolation unit (Grass, SD9, Mass., USA). […] LTP was measured by normalizing the EPSP slopes after HFS to the mean slope of the baseline EPSP before HFS. Data were digitized (10 kHz), filtered at 1 kHz (eight-pole Bessel Filter), monitored on-line, and stored on hard disk using PULSE 8.41 (HEKA, Lambrecht, Germany). […]

[2] = test system: Schaffer collateral-CA1 synapses in hippocampal slices; experiment: LTP induced by HFS in hippocampal slices; assay type: cell-based, mice; details: 10 μM PMA
Protocol: as §1
Standard extracellular field potential recording techniques were used. Experiments were performed in a submerged chamber, heated to 31±0.5° C. Field postsynaptic excitatory potentials (EPSPs) were evoked in CA1 stratum radiatum by stimulation of Schaffer collaterals with a bipolar stainless steel electrode that was put at the border of CA3-CA1 subfields and recorded with 3M NaCl-filled glass pipettes (<5 MSΩ) using a biological amplifier (WPI, Iso-DAME, FL., USA). A 100 μs test stimulation was delivered every 30 s by a stimulus isolation unit (Grass, SD9, Mass., USA). Input-output curves were obtained by plotting the stimulus voltage against the amplitude of EPSPs. […] Stimulus intensity was adjusted to evoke half-maximal responses. LTP was induced by a high-frequency stimulation (HFS, 100 Hz, 1 s, at test intensity). Paired-pulse facilitation (PPF) was observed by applying paired pulses with different intervals (20, 50 ms). LTP was measured by normalizing the EPSP slopes after HFS to the mean slope of the baseline EPSP before HFS. Data were digitized (10 kHz), filtered at 1 kHz (eight-pole Bessel Filter), monitored on-line, and stored on hard disk using PULSE 8.41 (HEKA, Lambrecht, Germany). Off-line analysis was performed by PATCHMACHINE 1.0 (Hoshi Laboratory, Philadelphia, Pa., USA) and IGORPRO 4.0 (WaveMetrics, Lake Oswego, Oreg., USA). Unless otherwise noted, two-sample t-test was used to calculate statistical

cortical neurons = details: primary cultures of cortical neurons; cited from earlier work
ASIC channels = target: T1, ASIC channels (Homo sapiens, UniProt P78348); details: cited from earlier work
T1 sequence (P78348 1-528): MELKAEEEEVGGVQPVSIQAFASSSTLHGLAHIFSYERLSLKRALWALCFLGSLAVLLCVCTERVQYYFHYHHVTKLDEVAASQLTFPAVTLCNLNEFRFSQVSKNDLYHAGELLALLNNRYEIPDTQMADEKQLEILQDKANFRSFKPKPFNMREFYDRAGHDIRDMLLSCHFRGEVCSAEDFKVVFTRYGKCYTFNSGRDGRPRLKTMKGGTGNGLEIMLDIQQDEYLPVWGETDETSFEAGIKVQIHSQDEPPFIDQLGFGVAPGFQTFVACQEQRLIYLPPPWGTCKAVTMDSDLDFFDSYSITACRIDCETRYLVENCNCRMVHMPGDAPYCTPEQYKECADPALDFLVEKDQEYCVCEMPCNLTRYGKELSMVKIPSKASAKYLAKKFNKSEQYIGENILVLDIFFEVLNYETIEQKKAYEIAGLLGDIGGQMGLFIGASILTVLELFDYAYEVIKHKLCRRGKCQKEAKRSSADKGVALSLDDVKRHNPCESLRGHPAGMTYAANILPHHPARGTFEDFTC

O=C(O)c1cc(=O)c2ccccc2[nH]1 [KA, kynurenic acid]
effect on baseline EPSPs [1]: abolished EPSPs

CCCCCCCCCCCCCC(=O)O[C@@H]1[C@@H](C)[C@@]2(O)[C@@H](C=C(CO)C[C@]3(O)C(=O)C(C)=C[C@@H]23)[C@@H]2C(C)(C)[C@]12OC(C)=O [PMA, phorbol 12-myristate 13-acetate]
Mean EPSP amplitude at 40 min. following HFS ([2]; +/+ slices): 167±15%
Mean EPSP amplitude at 40 min. following HFS ([2]; −/− slices): 158±11%
effect on LTP ([2]; −/− slices): restores LTP

N=C(N)NC(=O)c1nc(Cl)c(N)nc1N [amiloride]
effect on H+-evoked currents (cortical neurons): inhibition

Phe-Met-Arg-Phe-NH2 [FMRFamide]
modulation of the response of ASIC channels to acid (ASIC channels): generating a sustained component of current

neuropeptide FF
modulation of the response of ASIC channels to acid (ASIC channels): generating a sustained component of current
